Here are results for three compounds from patent publication US8299038B2, “Methods and compositions for treating hepatitis C virus” (Idenix Pharmaceuticals, Inc., priority 2000, dated 2012).

Where “and” joins values, the source holds several entries; their conditions need not be identical. Identical values can stand only once.

The test system of series [1] is HCV. Conditions: monotherapy, cited from earlier work.
Series [2] deals with BFU-E (human bone marrow cells). The experiment in a line: Human bone marrow toxicity BFU-E clonogenic assay. Conditions: read-out: IC50 BFU-E, colony formation after 14 to 18 days.
Procedure: (§1) The culture assays for CFU-GM and BFU-E were performed using a bilayer soft agar or methylcellulose method. Drugs were diluted in tissue culture medium and filtered. After 14 to 18 days at 37° C. in a humidified atmosphere of 5% CO2 in air, colonies of greater than 50 cells were counted using an inverted microscope.
Series [3] has as its system CFU-GM (human bone marrow cells). The series can be described thus: Human bone marrow toxicity CFU-GM clonogenic assay. Conditions: read-out: IC50 CFU-GM, colony formation after 14 to 18 days.
Procedure: as §1
Series [4] can be described thus: Bioavailability assay in Cynomolgus monkeys. Format: in vivo, cynomolgus monkey. Conditions: for Norm AUC: individual monkeys, AUC normalised to dose in mg; for Mean Norm AUC: mean of 3 monkeys. The protocol:
Within 1 week prior to the study initiation, the cynomolgus monkey was surgically implanted with a chronic venous catheter and subcutaneous venous access port (VAP) to facilitate blood collection and underwent a physical examination including hematology and serum chemistry evaluations and the body weight was recorded. […] Each dosing syringe was weighed before dosing to gravimetrically determine the quantity of formulation administered. Urine samples were collected via pan catch at the designated intervals (approximately 18-0 hours pre-dose, 0-4, 4-8 and 8-12 hours post-dosage) and processed.

Usually IC50 stands for the concentration at which inhibition is half-maximal. The Cmax is the peak of the concentration-time curve. The Tmax is the time from dosing to the highest level. In general, Vss refers to the apparent volume that relates the amount in the body to the concentration in plasma or blood. The term AUC denotes the area under the concentration-time curve, a measure of exposure. A high value points to high exposure.

For the compound `NC(=O)c1ncn([C@@H]2O[C@H](CO)[C@@H](O)[C@H]2O)n1` [ribavirin, 1-β-D-ribofuranosyl-1-1,2,4-triazole-3-carboxamide], the “effect on serum levels of HCV-RNA” value in series [1] (HCV patients) was “does not lower serum levels of HCV-RNA”. For the same compound, the “patients in whom serum amino transferase levels are reduced to normal” value in series [1] is listed as 40%.

As to `C[C@@]1(O)[C@H](O)[C@@H](CO)O[C@H]1n1cnc2c(N)ncnc21` [β-D-2′-CH3-riboA, 2′-C-methylriboadenine], the IC50 in series [2] and in series [3] was > 100 µM in each case.

`C[C@@]1(O)[C@H](O)[C@@H](CO)O[C@H]1n1cnc2c(=O)[nH]c(N)nc21` [β-D-2′-CH3-riboG] had a CL in series [4] (IV 10 mg/kg) of 21.3 ± 8 mL/min/kg. Further, the Cmax in series [4] (IV 10 mg/kg) came out at 6945.6 ± 1886.0 ng/mL; in series [4] (PO 10 mg/kg) it was 217.7 ± 132.1 ng/mL. For the same compound, the T1/2 in series [4] (IV 10 mg/kg) turned out to be 7.9 ± 5.4 h; in series [4] (PO 10 mg/kg), 10.3 ± 4.1 h. Moreover, the Tmax stood at 0.25 ± 0.00 h in series [4] (IV 10 mg/kg) and 2.00 ± 1.00 h in series [4] (PO 10 mg/kg). In series [4] (IV 10 mg/kg), the Vss was 2.09 ± 0.54 L/kg. Also, the AUC in series [4] (IV 10 mg/kg, mean ± spread) is 8758.0 ± 4212.9 ng·h/mL; in series [4] (IV bolus 10 mg/kg, individual monkeys 1-3, 10 mg/kg), 6079 ng·h/mL and 13614 ng·h/mL and 6581 ng·h/mL; in series [4] (PO 10 mg/kg, mean ± spread), 1166.0 ± 589.6 ng·h/mL; in series [4] (PO gavage 10 mg/kg, individual monkeys 1-3, 10 mg/kg) it was 758 ng·h/mL and 898 ng·h/mL and 1842 ng·h/mL. Besides, the “Norm AUC” value is 293.4 ng·h/mL/mg and 293.2 ng·h/mL/mg and 268.3 ng·h/mL/mg in series [4] (IV); 26.1 ng·h/mL/mg and 29.0 ng·h/mL/mg and 61.3 ng·h/mL/mg in series [4] (PO). In addition, the “Mean Norm AUC” value in series [4] (IV) is 284.9 ng·h/mL/mg; in series [4] (PO) it was 38.8 ng·h/mL/mg. In addition, the “F (oral bioavailability)” value in series [4] (Table 2, PO vs IV mean norm AUC) came to 13.6%. In series [4] (Table 3, 10 mg/kg PO vs IV), this compound showed an F of 13.8%. Moreover, the IC50 in series [2] is > 100 µM; in series [3] it was > 10 µM.
